ChEMBL document CHEMBL3739419, “Influence of Sugar Amine Regiochemistry on Digitoxigenin Neoglycoside Anticancer Activity” (ACS Med Chem Lett, 2015)

Tested on: A549
Experiment: Anticancer activity against human A549 cells by alamar blue assay
Format: functional, cell-based

Structure (SMILES)	IC50 [µM]
CON([C@H]1CC[C@@]2(C)[C@H](CC[C@@H]3[C@@H]2CC[C@]2(C)[C@@H](C4=CC(=O)OC4)CC[C@]32O)C1)[C@@H]1O[C@H](CO)[C@@H](N=[N+]=[N-])[C@H](O)[C@H]1O	0.13
CON([C@H]1CC[C@@]2(C)[C@H](CC[C@@H]3[C@@H]2CC[C@]2(C)[C@@H](C4=CC(=O)OC4)CC[C@]32O)C1)[C@@H]1OC[C@@H](N)[C@H](O)[C@H]1O	0.043
CON([C@H]1CC[C@@]2(C)[C@H](CC[C@@H]3[C@@H]2CC[C@]2(C)[C@@H](C4=CC(=O)OC4)CC[C@]32O)C1)[C@@H]1O[C@H](CO)[C@@H](N)[C@H](O)[C@H]1O	0.02
CON([C@H]1CC[C@@]2(C)[C@H](CC[C@@H]3[C@@H]2CC[C@]2(C)[C@@H](C4=CC(=O)OC4)CC[C@]32O)C1)[C@@H]1O[C@H](CO)[C@@H](O)[C@H](N)[C@H]1O	0.034
CON([C@H]1CC[C@@]2(C)[C@H](CC[C@@H]3[C@@H]2CC[C@]2(C)[C@@H](C4=CC(=O)OC4)CC[C@]32O)C1)[C@@H]1OC[C@@H](O)[C@H](N=[N+]=[N-])[C@H]1O	0.017
CON([C@H]1CC[C@@]2(C)[C@H](CC[C@@H]3[C@@H]2CC[C@]2(C)[C@@H](C4=CC(=O)OC4)CC[C@]32O)C1)[C@@H]1O[C@H](CO)[C@@H](O)[C@H](O)[C@H]1O	1.6
CON([C@H]1CC[C@@]2(C)[C@H](CC[C@@H]3[C@@H]2CC[C@]2(C)[C@@H](C4=CC(=O)OC4)CC[C@]32O)C1)[C@@H]1OC[C@@H](N=[N+]=[N-])[C@H](O)[C@H]1O	0.034
CON([C@H]1CC[C@@]2(C)[C@H](CC[C@@H]3[C@@H]2CC[C@]2(C)[C@@H](C4=CC(=O)OC4)CC[C@]32O)C1)[C@@H]1O[C@H](CO)[C@@H](O)[C@H](N=[N+]=[N-])[C@H]1O	0.39
CON([C@H]1CC[C@@]2(C)[C@H](CC[C@@H]3[C@@H]2CC[C@]2(C)[C@@H](C4=CC(=O)OC4)CC[C@]32O)C1)[C@@H]1OC[C@@H](O)[C@H](N)[C@H]1O	0.01
